# In ChEMBL document CHEMBL1221220, “Transport and signaling via the amino acid binding site of the yeast Gap1 amino acid transceptor” (Nat Chem Biol, 2009):
# Non-standard residues stand in square brackets, D forms with d. Residues, ends and D or L forms follow the SMILES beside them. *: point of attachment. Hyp = O=C(O)[C@@H]1C[C@@H](O)CN1; NMeD = CN[C@@H](CC(=O)O)C(=O)O; NMeL = CN[C@@H](CC(C)C)C(=O)O; Bz = O=C(c1ccccc1)*
# Molecular target: T1, General amino-acid permease GAP1 (Saccharomyces cerevisiae) (UniProt P19145)
# T1 sequence (whole entry): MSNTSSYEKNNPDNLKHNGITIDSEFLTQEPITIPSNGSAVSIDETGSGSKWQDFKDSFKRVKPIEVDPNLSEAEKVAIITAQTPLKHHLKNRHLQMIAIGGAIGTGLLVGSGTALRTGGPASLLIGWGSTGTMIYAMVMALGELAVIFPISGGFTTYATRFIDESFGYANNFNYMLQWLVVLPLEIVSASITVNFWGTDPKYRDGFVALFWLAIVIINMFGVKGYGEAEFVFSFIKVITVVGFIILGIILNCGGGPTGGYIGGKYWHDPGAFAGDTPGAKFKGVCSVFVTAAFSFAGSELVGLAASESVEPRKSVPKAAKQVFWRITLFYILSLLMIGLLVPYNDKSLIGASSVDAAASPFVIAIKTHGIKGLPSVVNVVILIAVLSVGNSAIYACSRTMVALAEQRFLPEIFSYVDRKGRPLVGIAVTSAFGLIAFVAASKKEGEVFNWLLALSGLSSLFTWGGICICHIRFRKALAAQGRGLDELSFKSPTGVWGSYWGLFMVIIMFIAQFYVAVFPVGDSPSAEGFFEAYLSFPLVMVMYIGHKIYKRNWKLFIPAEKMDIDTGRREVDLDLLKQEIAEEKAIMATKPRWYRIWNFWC
# Details: sigma1278b, at 5 mM
# Description: Inhibition of nitrogen-starved wild type sigma1278b yeast Gap1-mediated amino acid uptake at 5 mM after 60 secs relative to L-citrulline
# 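Further: amino acid uptake through Gap1 in nitrogen-starved wild-type yeast cells, measured after 60 s and expressed relative to L-citrulline.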
row,Compound,inhibition
1,C[C@H](N)C(=O)N[C@@H](CCC(=O)O)C(N)=O (H-Ala-Glu-NH2),< 15%
2,CC(C)C[C@@H](NC(=O)OC(C)(C)C)C(=O)O,< 15%
3,CC(C)C[C@H](N)C(=O)N1C[C@H](O)C[C@H]1C(=O)O (H-Leu-[Hyp]-OH),< 15%
4,NC(=O)[C@@H]1CCCN1,< 15%
5,CN[C@@H](CC(C)C)C(=O)NCC(=O)O (H-[NMeL]-Gly-OH),< 15%
6,CN[C@@H](Cc1cnc[nH]1)C(=O)O,< 15%
7,NCC(=O)N[C@@H](Cc1ccccc1)C(=O)O,> 30%
8,CC(C)(C)OC(=O)NCCC[C@H](N)C(=O)O,< 15%
9,NCC(=O)NCC(=O)N[C@@H](CO)C(=O)O,< 15%
10,CSCC[C@H](N)C(=O)N[C@@H](CC(=O)O)C(=O)O (H-Met-Asp-OH),< 15%
11,CC[C@H](C)[C@H](N)C(=O)N[C@H](C(=O)O)[C@@H](C)CC (H-Ile-Ile-OH),< 15%
12,N[C@@H](Cc1ccc(O)cc1)C(=O)NCC(=O)O,< 15%
13,CCC[C@H](N)C(=O)OC,< 15%
14,O=C(N[C@@H](CO)C(=O)O)OCc1ccccc1,< 15%
15,O=C(O)[C@H]1CNCCN1,< 15%
16,O=C(O)[C@@H]1CNCCN1,< 15%
17,N[C@@H](CO)C(=O)NCC(=O)O (H-Ser-Gly-OH),< 15%
18,COC(=O)[C@H](Cc1ccccc1)NC(=O)C[C@H](N)C(=O)O,> 30%
19,CC(C)C[C@H](NC(=O)CN)C(=O)O,< 15%
20,NCC(=O)NCCC(=O)NCCS(=O)(=O)O,< 15%
21,CC(=O)N[C@@H](CCC(=O)OC(C)(C)C)C(=O)O,< 15%
22,CC(C)C[C@H](NC(=O)CN)C(=O)O (racemic),15%
23,CC(C)C(NC(=O)CN)C(=O)O (stereo in doubt),< 15%
24,COC(=O)[C@@H](N)CO,< 15%
25,NCCCC[C@H](NC(=O)[C@@H](N)CCCCN)C(=O)O,< 15%

row,Compound,inhibition
1,CSCC[C@H](N)C(=O)NCC(=O)N[C@@H](CC(=O)O)C(=O)O (H-Met-Gly-Asp-OH),< 15%
2,CC(C)[C@H](N)C(=O)N[C@H](C(=O)N[C@@H](C(=O)O)C(C)C)C(C)C (H-Val-Val-[dV]-OH),< 15%
3,N[C@@H](Cc1cnc[nH]1)C(=O)NCCS(=O)(=O)O,< 15%
4,C[C@@H](O)[C@H](N)C(=O)N[C@@H](CCCCN)C(=O)N[C@@H](Cc1ccc(O)cc1)C(=O)O (H-Thr-Lys-Tyr-OH),< 15%
5,CSCC[C@H](NC(=O)[C@@H](N)[C@@H](C)O)C(=O)O (H-Thr-Met-OH),< 15%
6,N[C@@H](Cc1c[nH]cn1)C(=O)NCC(=O)O (H-His-Gly-OH),< 15%
7,CC(C)C[C@H](NC(=O)[C@@H](N)CC(C)C)C(=O)N[C@H](C(=O)O)C(C)C (H-Leu-Leu-Val-OH),< 15%
8,CSCC[C@H](NC(=O)[C@@H](N)Cc1ccc(O)cc1)C(=O)O (H-Tyr-Met-OH),< 15%
9,CSCC[C@@H](N)C(=O)NCC(=O)O (H-[dM]-Gly-OH),< 15%
10,NCC(=O)N[C@H](Cc1ccccc1)C(=O)O,> 30%
11,COC(=O)[C@@H](N)CCSC,< 15%
12,N[C@@H](CO)C(=O)N[C@@H](CO)C(=O)O (H-Ser-Ser-OH),< 15%
13,N[C@@H](CO)Cc1c[nH]c2ccccc12,< 15%
14,NCC(=O)N[C@@H](CCC(=O)O)C(=O)O (H-Gly-Glu-OH),< 15%
15,C[C@H](N)C(=O)N[C@H](CCC(=O)O)C(N)=O (H-Ala-[dE]-NH2),< 15%
16,CSCC[C@H](NC(=O)CN)C(=O)N[C@@H](CC(C)C)C(=O)O (H-Gly-Met-Leu-OH),< 15%
17,CC[C@H](C)[C@H](NC(=O)[C@H](C)N)C(=O)O (H-Ala-Ile-OH),15%
18,N[C@@H](Cc1c[nH]cn1)C(=O)N[C@@H](CO)C(=O)O (H-His-Ser-OH),< 15%
19,CSCC[C@H](NC(=O)OC(C)(C)C)C(=O)O,< 15%
20,C[C@@H](NC(=O)CN)C(=O)O (H-Gly-[dA]-OH),< 15%
21,C[C@@H](NC(=O)[C@@H](N)CCC(=O)O)C(=O)O,< 15%
22,CSCC[C@H](N)C(=O)NCC(=O)O (H-Met-Gly-OH),< 15%
23,COC(=O)[C@@H]1C[C@@H](O)CN1,< 15%
24,O=C(O)CNC(=O)CNC(=O)c1ccccc1 (Bz-Gly-Gly-OH),< 15%
25,NCCC(N)=O,< 15%

row,Compound,inhibition
1,NCC(=O)N[C@@H](Cc1c[nH]c2ccccc12)C(=O)O (H-Gly-Trp-OH),> 30%
2,N[C@@H](CS)C(=O)NCC(=O)O,< 15%
3,CC(C)C[C@@H](N)C(=O)NCC(=O)O (H-[dL]-Gly-OH),< 15%
4,NCC(=O)NCC(=O)N[C@@H](Cc1ccccc1)C(=O)O (H-Gly-Gly-Phe-OH),< 15%
5,CC(C)C[C@H](NC(=O)CNC(=O)[C@@H](N)CC(C)C)C(=O)O (H-Leu-Gly-Leu-OH),< 15%
6,CC(C)[C@H](NC(=O)CNC(=O)CN)C(=O)O (H-Gly-Gly-Val-OH),< 15%
7,COC(=O)[C@@H](N)Cc1ccc(O)cc1,< 15%
8,N[C@@H](Cc1ccc(O)cc1)C(=O)N[C@@H](CCC(=O)O)C(=O)O (H-Tyr-Glu-OH),< 15%
9,N[C@@H](Cc1ccc(O)cc1)C(=O)NCC(=O)NCC(=O)O (H-Tyr-Gly-Gly-OH),< 15%
10,CC(C)(C)OC(=O)NC(Cc1ccc(O)cc1)C(=O)O (stereo in doubt),< 15%
11,CN[C@@H](CC(=O)O)C(=O)N[C@@H](Cc1ccccc1)C(N)=O (H-[NMeD]-Phe-NH2),< 15%
12,C[C@H](N)C(=O)NCC(=O)O,> 30%
13,C[C@H](N)C(=O)N[C@@H](Cc1cnc[nH]1)C(=O)O (H-Ala-His-OH),> 30%
14,CC(C)C[C@H](NC(=O)[C@@H](N)CC(C)C)C(=O)N[C@@H](Cc1cnc[nH]1)C(=O)O (H-Leu-Leu-His-OH),< 15%
15,N[C@@H](Cc1cnc[nH]1)C(=O)N[C@@H](Cc1ccccc1)C(=O)O (H-His-Phe-OH),< 15%
16,CSCC[C@H](N)C(=O)N[C@@H](CCC(=O)O)C(=O)O (H-Met-Glu-OH),< 15%
17,CSCC[C@H](NC(=O)[C@H](CC(C)C)NC(=O)CN)C(N)=O (H-Gly-Leu-Met-NH2),< 15%
18,CSCC[C@H](N)C(=O)N[C@@H](CO)C(=O)O (H-Met-Ser-OH),< 15%
19,C[C@H](NC(=O)[C@@H](N)CCC(N)=O)C(=O)O (H-Gln-Ala-OH),< 15%
20,CC(C)C[C@H](NC(=O)[C@@H](N)C(C)C)C(=O)O (H-Val-Leu-OH),< 15%
21,CSCC[C@H](NC(=O)[C@@H](N)Cc1c[nH]c2ccccc12)C(=O)O (H-Trp-Met-OH),< 15%
22,NCC(=O)NCC(=O)N1CCC[C@H]1C(=O)O (H-Gly-Gly-Pro-OH),< 15%
23,NCC(=O)NCC(N)=O,< 15%
24,N=C(N)NCCC[C@H](NC(=O)[C@@H](N)CC(=O)O)C(=O)O (H-Asp-Arg-OH),< 15%
25,CC[C@H](C)[C@H](NC(=O)CN)C(=O)O (H-Gly-Ile-OH),< 15%

row,Compound,inhibition
1,CC(=O)N1CCC[C@H]1C(=O)N[C@@H](Cc1ccccc1)C(=O)N[C@@H](CCCNC(=N)N)C(=O)O (Ac-Pro-Phe-Arg-OH),< 15%
2,NC(=O)CC[C@H](NC(=O)[C@@H]1CCCN1)C(=O)O (H-Pro-Gln-OH),< 15%
3,CC(C)C[C@H](N)C(=O)N[C@@H](C)C(=O)O (H-Leu-Ala-OH),< 15%
4,CC(C)C[C@H](NC(=O)[C@@H](N)CC(C)C)C(=O)N[C@@H](CC(=O)O)C(=O)O (H-Leu-Leu-Asp-OH),> 30%
5,CC(C)(C)OC(=O)N[C@@H](Cc1cnc[nH]1)C(=O)O,< 15%
6,CC(C)C[C@H](N)C(=O)NCC(=O)N1CCC[C@H]1C(=O)O (H-Leu-Gly-Pro-OH),< 15%
7,N[C@@H](Cc1cnc[nH]1)C(=O)NCC(=O)NCC(=O)O (H-His-Gly-Gly-OH),< 15%
8,CC(C)C[C@@H](NC(=O)CNC(=O)CN)C(=O)O,< 15%
9,N[C@@H]1CONC1=O,< 15%
10,C[C@H](N)C(=O)OC(C)(C)C,< 15%
11,NCC(=O)NCCC(=O)O,< 15%
12,CC(C)C[C@H](NC(=O)[C@H](Cc1cnc[nH]1)NC(=O)CN)C(N)=O (H-Gly-His-Leu-NH2),< 15%
13,CC(C)C[C@@H](N)C(=O)N[C@@H](CC(C)C)C(=O)O,< 15%
14,CC(C)(C)OC(=O)N[C@@H](CCCNC(=N)N)C(=O)O,< 15%
15,CC(C)CC(NC(=O)C(C)N)C(=O)O (racemic),15%
16,O=C(O)C1CCCCN1 (centres undefined),< 15%
17,NCC(=O)N[C@@H](Cc1cnc[nH]1)C(=O)O (H-Gly-His-OH),< 15%
18,CC(C)CC(N)C(=O)NC(CC(C)C)C(=O)O (racemic),> 30%
19,CC(C)C[C@H](NC(=O)CNC(=O)c1ccccc1)C(N)=O,< 15%
20,CC(C)C[C@H](NC(=O)[C@@H](N)CC(C)C)C(=O)N1CCC[C@H]1C(=O)O (H-Leu-Leu-Pro-OH),< 15%
21,CC[C@H](C)[C@H](N)C(=O)N[C@@H](CC(C)C)C(=O)O (H-Ile-Leu-OH),> 30%
22,CC[C@H](C)[C@H](N)C(N)=O,< 15%
23,CC[C@H](C)[C@H](N)C(=O)OC,< 15%
24,CC(C)[C@H](N)C(=O)N[C@@H](CO)C(=O)O (H-Val-Ser-OH),< 15%
